# Data taken from ChEMBL document CHEMBL1201862, “PubChem BioAssay data set” (2004).
#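 Test compounds were applied to cells in 96-well plates for 48 hours at 5 doses. At the GI50, growth is halved.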 Active and inactive are the calls of the source. Rule as the data show it: active = GI50 up to about 1.1 µM and inactive = higher.
# Key:
# Assay in all cases: NCI tumour cell line growth inhibition, 48 h
# NCI-H23 = system: NCI-H23
# ACHN = system: ACHN
# KM12 = system: KM12
# DMS-273 = system: DMS-273
# Malme-3M = system: Malme-3M
# LXFL 529 = system: LXFL 529
# RPMI-8226 = system: RPMI-8226
# M14 = system: M14
# CAKI-1 = system: CAKI-1
# SNB-75 = system: SNB-75
# HT-29 = system: HT-29
# A498 = system: A498
# DMS-114 = system: DMS-114
# KM-20L2 = system: KM-20L2
# UACC-62 = system: UACC-62
# HCT-15 = system: HCT-15
# RXF 393 = system: RXF 393
# K562 = system: K562
# OVCAR-5 = system: OVCAR-5
# HCT-116 = system: HCT-116
# SN12C = system: SN12C
# SNB-78 = system: SNB-78
# OVCAR-4 = system: OVCAR-4
# HCC 2998 = system: HCC 2998
# SK-MEL-28 = system: SK-MEL-28
# IGROV-1 = system: IGROV-1
# XF498 = system: XF498
# 786-0 = system: 786-0
# SF-268 = system: SF-268
# DLD-1 = system: DLD-1
# U-251 = system: U-251
# SK-MEL-2 = system: SK-MEL-2
# SR = system: SR
# NCI-H522 = system: NCI-H522
# TK-10 = system: TK-10
# RXF 631 = system: RXF 631
# NCI-H460 = system: NCI-H460
# UACC-257 = system: UACC-257
# M19-MEL = system: M19-MEL
# UO-31 = system: UO-31
# MOLT-4 = system: MOLT-4
# EKVX = system: EKVX
# HOP-62 = system: HOP-62
# SNB-19 = system: SNB-19
# SK-MEL-5 = system: SK-MEL-5
# LOX IMVI = system: LOX IMVI
# SF-295 = system: SF-295
# OVCAR-8 = system: OVCAR-8
# SF-539 = system: SF-539
# HL-60 = system: HL-60
# A549 = system: A549
# SW-620 = system: SW-620
# HOP-18 = system: HOP-18
# CCRF-CEM = system: CCRF-CEM
# SK-OV-3 = system: SK-OV-3
# COLO 205 = system: COLO 205
# NCI-H226 = system: NCI-H226
# OVCAR-3 = system: OVCAR-3
structure (smiles),measurement,setting,value
COC(=O)c1ccc2n[se]nc2c1,GI50,NCI-H23,> 100 µM (inactive)
same,GI50,ACHN,> 100 µM (inactive)
same,GI50,KM12,> 100 µM (inactive)
same,GI50,DMS-273,> 100 µM (inactive)
same,GI50,Malme-3M,> 100 µM (inactive)
same,GI50,LXFL 529,> 100 µM (inactive)
same,GI50,RPMI-8226,> 100 µM (inactive)
same,GI50,M14,> 100 µM (inactive)
same,GI50,CAKI-1,> 100 µM (inactive)
same,GI50,SNB-75,83.6 µM (inactive)
same,GI50,HT-29,> 100 µM (inactive)
same,GI50,A498,> 100 µM (inactive)
same,GI50,DMS-114,> 100 µM (inactive)
same,GI50,KM-20L2,> 100 µM (inactive)
same,GI50,UACC-62,> 100 µM (inactive)
same,GI50,HCT-15,> 100 µM
same,GI50,RXF 393,> 100 µM (inactive)
same,GI50,K562,> 100 µM (inactive)
same,GI50,OVCAR-5,> 100 µM (inactive)
same,GI50,HCT-116,> 100 µM (inactive)
same,GI50,SN12C,> 100 µM (inactive)
same,GI50,SNB-78,> 100 µM (inactive)
same,GI50,OVCAR-4,> 100 µM (inactive)
same,GI50,HCC 2998,> 100 µM (inactive)
same,GI50,SK-MEL-28,> 100 µM (inactive)
same,GI50,IGROV-1,> 100 µM (inactive)
same,GI50,XF498,> 100 µM (inactive)
same,GI50,786-0,> 100 µM (inactive)
same,GI50,SF-268,> 100 µM (inactive)
same,GI50,DLD-1,> 100 µM (inactive)
same,GI50,U-251,> 100 µM (inactive)
same,GI50,SK-MEL-2,> 100 µM (inactive)
same,GI50,SR,> 100 µM (inactive)
same,GI50,NCI-H522,> 100 µM (inactive)
same,GI50,TK-10,> 100 µM (inactive)
same,GI50,RXF 631,> 100 µM (inactive)
same,GI50,NCI-H460,> 100 µM (inactive)
same,GI50,UACC-257,> 100 µM (inactive)
same,GI50,M19-MEL,> 100 µM (inactive)
same,GI50,UO-31,> 100 µM (inactive)
same,GI50,MOLT-4,> 100 µM (inactive)
same,GI50,EKVX,71 µM (inactive)
same,GI50,HOP-62,> 100 µM (inactive)
same,GI50,SNB-19,> 100 µM (inactive)
same,GI50,SK-MEL-5,> 100 µM (inactive)
same,GI50,LOX IMVI,> 100 µM (inactive)
same,GI50,SF-295,> 100 µM (inactive)
same,GI50,OVCAR-8,> 100 µM (inactive)
same,GI50,SF-539,> 100 µM (inactive)
same,GI50,HL-60,> 100 µM (inactive)
same,GI50,A549,> 100 µM (inactive)
same,GI50,SW-620,> 100 µM (inactive)
same,GI50,HOP-18,> 100 µM (inactive)
same,GI50,CCRF-CEM,> 100 µM (inactive)
same,GI50,SK-OV-3,> 100 µM (inactive)
CC(=O)Nc1cccc2[nH]c3ccccc3c(=O)c12,GI50,NCI-H23,12.3 µM (inactive)
same,GI50,ACHN,17.4 µM (inactive)
same,GI50,KM12,17.7 µM (inactive)
same,GI50,DMS-273,32.2 µM (inactive)
same,GI50,COLO 205,16.3 µM (inactive)
same,GI50,Malme-3M,22.3 µM (inactive)
same,GI50,RPMI-8226,14.7 µM (inactive)
same,GI50,M14,30.9 µM (inactive)
same,GI50,CAKI-1,12.2 µM (inactive)
same,GI50,SNB-75,8.67 µM (inactive)
same,GI50,HT-29,17 µM (inactive)
same,GI50,A498,14.9 µM (inactive)
same,GI50,DMS-114,25.6 µM (inactive)
same,GI50,KM-20L2,21.1 µM (inactive)
same,GI50,UACC-62,13.8 µM (inactive)
same,GI50,NCI-H226,14.8 µM (inactive)
same,GI50,HCT-15,14.2 µM
same,GI50,K562,21.8 µM (inactive)
same,GI50,OVCAR-5,20.6 µM (inactive)
same,GI50,HCT-116,11.5 µM (inactive)
same,GI50,SN12C,22.4 µM (inactive)
same,GI50,OVCAR-4,22.8 µM (inactive)
same,GI50,SK-MEL-28,31.5 µM (inactive)
same,GI50,IGROV-1,26.4 µM (inactive)
same,GI50,XF498,23.1 µM (inactive)
same,GI50,786-0,17.6 µM (inactive)
same,GI50,SF-268,26.7 µM (inactive)
same,GI50,DLD-1,15.3 µM (inactive)
same,GI50,U-251,24.1 µM (inactive)
same,GI50,SK-MEL-2,18.6 µM (inactive)
same,GI50,NCI-H522,10.3 µM (inactive)
same,GI50,TK-10,20.4 µM (inactive)
same,GI50,RXF 631,27 µM (inactive)
same,GI50,NCI-H460,17 µM (inactive)
same,GI50,OVCAR-3,20.1 µM (inactive)
same,GI50,UACC-257,25.2 µM (inactive)
same,GI50,M19-MEL,21.8 µM (inactive)
same,GI50,UO-31,10.2 µM (inactive)
same,GI50,MOLT-4,17.1 µM (inactive)
same,GI50,EKVX,25.1 µM (inactive)
same,GI50,SNB-19,23.2 µM (inactive)
same,GI50,SK-MEL-5,15.3 µM (inactive)
same,GI50,SF-295,19.5 µM (inactive)
same,GI50,OVCAR-8,16.4 µM (inactive)
same,GI50,SF-539,21.6 µM (inactive)
same,GI50,HL-60,12.6 µM (inactive)
same,GI50,A549,21.6 µM (inactive)
same,GI50,SW-620,21.4 µM (inactive)
same,GI50,HOP-18,6.82 µM (inactive)
same,GI50,CCRF-CEM,21.5 µM (inactive)
same,GI50,SK-OV-3,32.1 µM (inactive)
